{
  "source": "patent US20240252668A1",
  "about": "“ANTIBODY DRUG CONJUGATES AND METHODS FOR MAKING THEREOF” (Novartis AG, priority 2021, published 2024)",
  "key": {"[1]": {"tested_on": "SK-MEL-30 skin melanoma cell line (heterozygous NRAS Q61K)", "assay": "Cell proliferation assay (resazurin cell viability), SK-MEL-30 cell line", "assay_type": "cell-based", "settings": "Homo sapiens", "outline": "(§1)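 Cells seeded the night before, then treated 96 h at 37 °C in RPMI/10% FCS (A375 in DMEM/10% FCS); compounds 260 nM to 0.036 nM in ⅓ dilution steps, one compound 10000 nM to 1.52 nM. Viability read by resazurin addition after 96 h.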"}, "[2]": {"assay": "Cell-based transwell assay with MDCK-low efflux monolayers (passive permeability)", "assay_type": "in vitro ADME", "settings": "dog; MDCK-LE monolayers", "experimental": "(§2) Cell-based transwell assays with MDCK-low efflux monolayers: Compounds (A1) and 2-15 were tested in MDCK cell sub-clones with low effluxt ransporter activity (MDCK-LE) in order to determine their passive permeability. The incubations were performed at a contract research organization as described previously."}, "[3]": {"tested_on": "MDCK-LE monolayers", "assay": "Cell-based transwell assay with MDCK-low efflux monolayers (passive permeability)", "assay_type": "in vitro ADME", "settings": "MDCK-LE monolayers", "experimental": "as §2"}, "[4]": {"assay": "Plasma incubation of compound (A1), human plasma, LC-MS/MS quantification", "assay_type": "in vitro ADME", "settings": "human plasma, 37° C.", "experimental": "(§3) Plasma incubations and sample preparation: Compound (A1) was spiked at 5.00 μg/mL in PBS and pooled mixed gender mouse (CD-1), cynomolgus monkey and human plasma. Samples were incubated on a Thermomixer (Eppendorf) at 37° C. while shaking at 650 rpm. Aliquots of 50 μL (n=3) were drawn from each incubation tube following 0, 0.5, 1, 2, 4, 8 and 24 h of incubation. 50 μL of sample was quenched with 200 μL of acetonitrile, containing both generic internal standards, glybenclamide and warfarin, at 62.5 ng/mL. Samples were briefly vortexed and centrifuged for 20 min at 4000 rpm and 4° C. 200 μL of the supernatant was transferred into a clean 800 μL 96-well sample collection plate.\nQuantification by LC-MS/MS: LC-MS/MS analysis was conducted with a Shimadzu Nexera UPLC coupled to AB Sciex QTRAP 6500 using the SRM acquisition mode (3 μL injected). Samples were analyzed using a ACE 3° C.18-PFP (3 μM, 2.1×50 mm column) at a column temperature of 65° C. The starting conditions were 97% H20 containing 0.1% formic acid and 3% CH3CN containing 0.1% formic acid. Quantification of compound (A1) and 5 was performed by MS-MRM (electrospray in positive mode, ion spray voltage: 5000 V, source temperature: 500° C., curtain gas: 25 psig, nebulizer gas: 60 psig, turbo ion spray gas: 40 psig, mass range: low, resolution Q1/Q3: unit, collision gas: medium, dwell time: 12 msec). Separate calibration curves were established with calibration standards of compounds (A1) and 5 at concentrations of 10.0, 5.00, 2.50, 1.00, 0.500, 0.100, 0.050 and 0.010 μg/mL respectively. Peak integration and quantification was conducted with the AB Sciex Analyst software (v.1.7) using the Analyst Classic algorithm. […]"}, "[5]": {"assay": "Plasma incubation of compound (A1), cynomolgus monkey plasma", "assay_type": "in vitro ADME", "experimental": "as §3\nQuantification by LC-MS/MS: LC-MS/MS analysis was conducted with a Shimadzu Nexera UPLC coupled to AB Sciex QTRAP 6500 using the SRM acquisition mode (3 μL injected). Samples were analyzed using a ACE 3° C.18-PFP (3 μM, 2.1×50 mm column) at a column temperature of 65° C. […] Quantification of compound (A1) and 5 was performed by MS-MRM (electrospray in positive mode, ion spray voltage: 5000 V, source temperature: 500° C., curtain gas: 25 psig, nebulizer gas: 60 psig, turbo ion spray gas: 40 psig, mass range: low, resolution Q1/Q3: unit, collision gas: medium, dwell time: 12 msec). […] Peak integration and quantification was conducted with the AB Sciex Analyst software (v.1.7) using the Analyst Classic algorithm."}, "[6]": {"tested_on": "MP41 uveal melanoma cell line (heterozygous GNA11 Q209L)", "assay": "Cell proliferation assay (resazurin cell viability), MP41 cell line", "assay_type": "cell-based", "outline": "as §1"}, "[7]": {"tested_on": "Gαq-mutant uveal melanoma xenografts", "settings": "systemically administered; cited from earlier work"}},
  "note": "Like-named read-outs stand apart in the source and are kept apart here. Starred links: 1 amine or outer side, 2 acyl side, 3 side chain; linkers in the order of their positions; H or OH if unused. Positions of bridges follow the written chain, without caps; N, C: chain ends. Non-standard residues stand in square brackets, D forms with d. Residues, ends and D or L forms follow the SMILES beside them. *: point of attachment. Leu(3R-OH,Nα-propionyl) = CCC(=O)N[C@H](C(=O)*)[C@H](O)C(C)C; X1 = CC(C)[C@@H](O[*:3])[C@H](N[*:1])C(=O)[*:2]; NMeT = CN[C@H](C(=O)O)[C@@H](C)O; dPhLac = O=C(O)[C@H](O)Cc1ccccc1; NMeA = CN[C@@H](C)C(=O)O; NMeDha = C=C(NC)C(=O)O",
  "data": [
    {"smiles": "C=C1C(=O)N[C@@H](C)C(=O)N(C)[C@@H](C)C(=O)N[C@@H]([C@H](OC(=O)[C@@H](NC(=O)CC)[C@H](O)C(C)C)C(C)C)C(=O)N(C)[C@@H]([C@@H](C)OC)C(=O)O[C@H](C(C)C)[C@H](NC(C)=O)C(=O)O[C@H](Cc2ccccc2)C(=O)N1C", "note": "[Compound (A1), FR900359] (Ac-[X1][dPhLac][NMeDha]A[NMeA][X1](Leu(3R-OH,Nα-propionyl))[NMeT](Me); ester 1-C)", "values": [
      {"measurement": "GI50", "setting": "[1]; SK-MEL-30 (GNAQ/11 wild type), 96 hours of treatment, read-out: GI50 by cell line, SK-MEL-30", "value": "> 260", "unit": "nM"},
      {"measurement": "GI50", "setting": "[1]; SK-MEL-30 cell line, average of Rep. 1 and 2, read-out: GI50 SK-MEL-30 Average", "value": "> 260", "unit": "nM"},
      {"measurement": "GI50", "setting": "[1]; SK-MEL-30 cell line, replicate 1, read-out: GI50 SK-MEL-30 Rep. 1", "value": "> 260", "unit": "nM"},
      {"measurement": "GI50", "setting": "[1]; SK-MEL-30 cell line, replicate 2, read-out: GI50 SK-MEL-30 Rep. 2", "value": "> 260", "unit": "nM"},
      {"measurement": "Papp A→B", "setting": "[2]", "value": 4.06, "unit": "×10⁻⁶ cm/s"},
      {"measurement": "recovery", "setting": "[2]", "value": 65, "unit": "%"},
      {"measurement": "% Fraction absorbed", "setting": "[3]", "value": 59.7, "unit": "%"},
      {"measurement": "Concentration of (A1), Aliquot 1", "setting": "[4]; 0 h", "value": 4.62, "unit": "µg/mL"},
      {"measurement": "Concentration of (A1), Aliquot 2", "setting": "[4]; 0 h", "value": 4.35, "unit": "µg/mL"},
      {"measurement": "Concentration of (A1), Aliquot 3", "setting": "[4]; 0 h", "value": 4.75, "unit": "µg/mL"},
      {"measurement": "Mean concentration of (A1)", "setting": "[4]; 0 h", "value": 4.57, "unit": "µg/mL"},
      {"measurement": "Concentration of (A1), Aliquot 1", "setting": "[4]; 0.5 h", "value": 5.15, "unit": "µg/mL"},
      {"measurement": "Concentration of (A1), Aliquot 2", "setting": "[4]; 0.5 h", "value": 5.10, "unit": "µg/mL"},
      {"measurement": "Concentration of (A1), Aliquot 3", "setting": "[4]; 0.5 h", "value": 5.10, "unit": "µg/mL"},
      {"measurement": "Mean concentration of (A1)", "setting": "[4]; 0.5 h", "value": 5.12, "unit": "µg/mL"},
      {"measurement": "Concentration of (A1), Aliquot 1", "setting": "[4]; 1 h", "value": 4.98, "unit": "µg/mL"},
      {"measurement": "Concentration of (A1), Aliquot 2", "setting": "[4]; 1 h", "value": 4.58, "unit": "µg/mL"},
      {"measurement": "Concentration of (A1), Aliquot 3", "setting": "[4]; 1 h", "value": 5.02, "unit": "µg/mL"},
      {"measurement": "Mean concentration of (A1)", "setting": "[4]; 1 h", "value": 4.86, "unit": "µg/mL"},
      {"measurement": "Concentration of (A1), Aliquot 1", "setting": "[4]; 2 h", "value": 4.79, "unit": "µg/mL"},
      {"measurement": "Concentration of (A1), Aliquot 2", "setting": "[4]; 2 h", "value": 5.13, "unit": "µg/mL"},
      {"measurement": "Concentration of (A1), Aliquot 3", "setting": "[4]; 2 h", "value": 4.68, "unit": "µg/mL"},
      {"measurement": "Mean concentration of (A1)", "setting": "[4]; 2 h", "value": 4.87, "unit": "µg/mL"},
      {"measurement": "Concentration of (A1), Aliquot 1", "setting": "[4]; 4 h", "value": 4.14, "unit": "µg/mL"},
      {"measurement": "Concentration of (A1), Aliquot 2", "setting": "[4]; 4 h", "value": 4.35, "unit": "µg/mL"},
      {"measurement": "Concentration of (A1), Aliquot 3", "setting": "[4]; 4 h", "value": 4.35, "unit": "µg/mL"},
      {"measurement": "Mean concentration of (A1)", "setting": "[4]; 4 h", "value": 4.28, "unit": "µg/mL"},
      {"measurement": "Concentration of (A1), Aliquot 1", "setting": "[4]; 8 h", "value": 3.26, "unit": "µg/mL"},
      {"measurement": "Concentration of (A1), Aliquot 2", "setting": "[4]; 8 h", "value": 3.66, "unit": "µg/mL"},
      {"measurement": "Concentration of (A1), Aliquot 3", "setting": "[4]; 8 h", "value": 3.60, "unit": "µg/mL"},
      {"measurement": "Mean concentration of (A1)", "setting": "[4]; 8 h", "value": 3.51, "unit": "µg/mL"},
      {"measurement": "Concentration of (A1), Aliquot 1", "setting": "[4]; 24 h", "value": 1.35, "unit": "µg/mL"},
      {"measurement": "Concentration of (A1), Aliquot 2", "setting": "[4]; 24 h", "value": 1.43, "unit": "µg/mL"},
      {"measurement": "Concentration of (A1), Aliquot 3", "setting": "[4]; 24 h", "value": 1.29, "unit": "µg/mL"},
      {"measurement": "Mean concentration of (A1)", "setting": "[4]; 24 h", "value": 1.36, "unit": "µg/mL"},
      {"measurement": "plasma stability / metabolite formation compared with human plasma", "setting": "[5]", "value": "Very similar results"},
      {"measurement": "GI50", "setting": "[6]; MP41 (GNA11 Q209L), 96 hours of treatment, read-out: GI50 by cell line, MP41", "value": 0.2, "unit": "nM"},
      {"measurement": "GI50", "setting": "[6]; MP41 cell line, average of Rep. 1 and 2, read-out: GI50 MP41 Average", "value": 0.2, "unit": "nM"},
      {"measurement": "GI50", "setting": "[6]; MP41 cell line, replicate 1, read-out: GI50 MP41 Rep. 1", "value": 0.22, "unit": "nM"},
      {"measurement": "GI50", "setting": "[6]; MP41 cell line, replicate 2, read-out: GI50 MP41 Rep. 2", "value": 0.27, "unit": "nM"},
      {"measurement": "tolerability of the active doses", "setting": "[7]", "value": "well tolerated"}
    ]}
  ]
}
